In patent US20230257385A1, “SALT AND SOLID FORMS OF TABERNANTHALOG” (priority 2021, published 2023):

What was measured:
[1] = Equilibrium humidity evaluation 75% RH/40° C., 10 days (Example 8, Experiment 6); assay type: physicochemical
Procedure: The experimental procedure that accompany this experiment is provided in Section G.ii.
All forms were maintained under constant equilibrium humidity (75% RH). XRPD, DSC, TGA, PLM and ^1H NMR analyses were performed on the absorbents at t=5 d and t=10 d, to confirm their physical fates and to determine the extent of residual solvent exchange or sequestration.
100 mg portions of Tabernanthalog salts ([…]) were placed in the relevant open vials. The powders were finely divided and distributed evenly over the base of the vial, such that equal material coverage across the panel was observed. These samples were then maintained 40° C. under 75% RH. The samples were sub-sampled at intervals of 5 and 10 days and analyzed by ^1H NMR, HPLC, XRPD, DSC, TGA and PLM, for evidence of phase change or chemical degradation.

[2] = DVS analyses of sorbate salt Form A / Form C (Example 10); assay type: physicochemical; settings: 0% to 90% to 0% RH
From the text: DVS analyses of Form A (Performed on batch reference: Experiment 11-Sample -A1) To determine whether Form A underwent form change at high % RH, DVS residues of Form A, from 0 to 80% RH and 0 to 90% RH, were examined. The specimens were equilibrated to constant mass, at 80% and 90% RH set-points, removed, placed in a capped vial, and analysed by XRPD and DSC. Based on the SC-XRD at 100 K, no regular voids in the crystal structure were large enough to accommodate non-crystal-bonded, molecular water with minimum probe radius of 1.4 Å.
The moisture sorption properties of the feed API were analysed by DVS Intrinsic instrument (Surface Measurement System). Approximately 20 to 50 mg of API was weighed onto an aluminium pan and loaded into the instrument equilibrated at 25° C. The sample was equilibrated under a dry atmosphere (0% relative humidity) for 60 minutes, before increasing the humidity from 0% to 30% at 5% step increment and from 30% to 90% at 10% step increment. A desorption cycle was also applied from 90% to 30% (10% step decrement) and from 30% to 0% (5% step decrement). A rate of change in mass per time unit (dm/dt) of 0.002%/min was set as the equilibrium parameter. Kinetic and isotherm graphs were calculated.
5. DVS Analyses: 0% to 90% DVS Mass Per Unit Time Equilibrated at Dm/Dt (0.0002%/Min)

[3] = Solubility determinations in SIF buffers FaSSIF, FeSSIF, FaSSGF (Example 8, Experiment 5)
Procedure: The temperature was maintained at 37° C. for 24 h. […] The suspensions were sampled at the relevant time points and centrifuged. The centrifuged pellets, obtained at the time points were analysed by XRPD as a wet pellet and dried, for evidence of form change.
The temperature was maintained at 37° C. for 24 h.
The suspension was sampled at the relevant time points and centrifuged. […] The centrifuged pellets, obtained at the time points were analyzed by XRPD as a wet pellet and dried, for evidence of form change.

[4] = assay type: physicochemical; settings: salt screen, Experiment 2
Procedure: Tabernanthalog (native) (50 mg, 1 wt) was charged to a solution of the relevant counter ion (1.0 mol equivalence of counter ion) in ethanol (5.0 vol, 250 μl). The mixtures were warmed to 85° C. and small aliquots of water were added until dissolution occurred (Table 212 for additional charges of solvent). The solutions were cooled and allowed to stand undisturbed under sub-ambient conditions overnight (Table 211). […] Products were isolated via centrifugation. The corresponding pellets were sub-sampled and analyzed wet by XRPD; after which, they were dried at 40° C. under reduced pressure over 20 h and reanalyzed by XRPD. […] Once the crystallization experiments were completed, salt formation was confirmed by ^1H NMR, XRPD, DSC and TGA.

[5] = input batch 3-B1, before SIF buffer

Compound: COc1ccc2c3c([nH]c2c1)CCN(C)CC3.O=C(O)/C=C/C(=O)O [8-A4 of Example 5]
- Tabernanthalog RRT = 1.00 (trended HPLC data, chemical purity) ([1]; Fumarate salt, input before humidity exposure): 99.04

Compound: C/C=C/C=C/C(=O)O.COc1ccc2c3c([nH]c2c1)CCN(C)CC3.O [Form C (Pattern #2)]
- form change during DVS [2]: reverted to Form A on the desorption cycle

Compound: COc1ccc2c3c([nH]c2c1)CCN(C)CC3.O=C(O)/C=C/C(=O)O [Sample 6-A1]
- Tabernanthalog RRT = 1.00 (trended HPLC data, chemical purity) ([1]; Fumarate salt, t = 5 d at 75% RH at 40° C.): 99.12

Compound: COc1ccc2c3c([nH]c2c1)CCN(C)CC3.O=C(O)/C=C/C(=O)O [Sample 6-A2]
- Tabernanthalog RRT = 1.00 (trended HPLC data, chemical purity) ([1]; Fumarate salt, t = 10 d at 75% RH at 40° C.): 98.71

Compound: COc1ccc2c3c([nH]c2c1)CCN(C)CC3.O=C(O)C(O)C(O)C(=O)O [Sample 6-B1]
- Tabernanthalog RRT = 1.00 (trended HPLC data, chemical purity) ([1]; Tartrate salt, t = 5 d at 75% RH at 40° C.): 98.86

Compound: COc1ccc2c3c([nH]c2c1)CCN(C)CC3.O=C(O)C(O)C(O)C(=O)O [Sample 6-B2]
- Tabernanthalog RRT = 1.00 (trended HPLC data, chemical purity) ([1]; Tartrate salt, t = 10 d at 75% RH at 40° C.): 98.82

Compound: COc1ccc2c3c([nH]c2c1)CCN(C)CC3.O=C(O)c1ccccc1 [Sample 6-C1]
- Tabernanthalog RRT = 1.00 (trended HPLC data, chemical purity) ([1]; Benzoate salt, t = 5 d at 75% RH at 40° C.): 98.36

Compound: C/C=C/C=C/C(=O)O.COc1ccc2c3c([nH]c2c1)CCN(C)CC3 [Sample 6-D1]
- Tabernanthalog RRT = 1.00 (trended HPLC data, chemical purity) ([1]; Sorbate salt, t = 5 d at 75% RH at 40° C.): 99.52

Compound: C/C=C/C=C/C(=O)O.COc1ccc2c3c([nH]c2c1)CCN(C)CC3 [Sample 6-D2]
- Tabernanthalog RRT = 1.00 (trended HPLC data, chemical purity) ([1]; Sorbate salt, t = 10 d at 75% RH at 40° C.): 99.70

Compound: COc1ccc2c3c([nH]c2c1)CCN(C)CC3.O=C(O)c1ccccc1 [Tabernanthalog · Benzoate]
- Trended HPLC data, Tabernanthalog (RRT 1.00) [3, 5]: 99.23 % area
- Trended HPLC data, peak at RRT 0.86 [3, 5]: 0.02 % area
- Trended HPLC data, peak at RRT 0.89 [3, 5]: 0.04 % area
- Trended HPLC data, peak at RRT 0.93 [3, 5]: 0.61 % area
- Trended HPLC data, peak at RRT 1.09 [3, 5]: 0.08 % area
- Trended HPLC data, peak at RRT 1.11 [3, 5]: 0.02 % area
- Trended HPLC data, Tabernanthalog (RRT 1.00) ([3]; t = 1 h in FaSSGF): 99.33 % area
- Trended HPLC data, peak at RRT 0.93 ([3]; t = 1 h in FaSSGF): 0.55 % area
- Trended HPLC data, peak at RRT 1.09 ([3]; t = 1 h in FaSSGF): 0.07 % area
- Trended HPLC data, peak at RRT 1.10 ([3]; t = 1 h in FaSSGF): 0.02 % area
- Trended HPLC data, peak at RRT 1.11 ([3]; t = 1 h in FaSSGF): 0.03 % area
- Trended HPLC data, Tabernanthalog (RRT 1.00) ([3]; t = 1 h in FaSSIF): 98.67 % area
- Trended HPLC data, peak at RRT 0.93 ([3]; t = 1 h in FaSSIF): 0.92 % area
- Trended HPLC data, peak at RRT 1.08 ([3]; t = 1 h in FaSSIF): 0.13 % area
- Trended HPLC data, peak at RRT 1.11 ([3]; t = 1 h in FaSSIF): 0.28 % area
- Trended HPLC data, Tabernanthalog (RRT 1.00) ([3]; t = 1 h in FeSSIF): 99.05 % area
- Trended HPLC data, peak at RRT 0.93 ([3]; t = 1 h in FeSSIF): 0.84 % area
- Trended HPLC data, peak at RRT 1.08 ([3]; t = 1 h in FeSSIF): 0.11 % area
- Trended HPLC data, Tabernanthalog (RRT 1.00) ([3]; t = 3 h in FaSSGF): 99.34 % area
- Trended HPLC data, peak at RRT 0.93 ([3]; t = 3 h in FaSSGF): 0.58 % area
- Trended HPLC data, peak at RRT 1.09 ([3]; t = 3 h in FaSSGF): 0.07 % area
- Trended HPLC data, Tabernanthalog (RRT 1.00) ([3]; t = 3 h in FaSSIF): 98.77 % area
- Trended HPLC data, peak at RRT 0.93 ([3]; t = 3 h in FaSSIF): 1.04 % area
- Trended HPLC data, peak at RRT 1.08 ([3]; t = 3 h in FaSSIF): 0.20 % area
- Trended HPLC data, Tabernanthalog (RRT 1.00) ([3]; t = 3 h in FeSSIF): 99.03 % area
- Trended HPLC data, peak at RRT 0.93 ([3]; t = 3 h in FeSSIF): 0.81 % area
- Trended HPLC data, peak at RRT 1.08 ([3]; t = 3 h in FeSSIF): 0.10 % area
- Trended HPLC data, peak at RRT 1.11 ([3]; t = 3 h in FeSSIF): 0.06 % area
- Trended HPLC data, Tabernanthalog (RRT 1.00) ([3]; t = 6 h in FaSSGF): 99.33 % area
- Trended HPLC data, peak at RRT 0.93 ([3]; t = 6 h in FaSSGF): 0.59 % area
- Trended HPLC data, peak at RRT 1.09 ([3]; t = 6 h in FaSSGF): 0.08 % area
- Trended HPLC data, Tabernanthalog (RRT 1.00) ([3]; t = 6 h in FaSSIF): 98.58 % area
- Trended HPLC data, peak at RRT 0.93 ([3]; t = 6 h in FaSSIF): 1.26 % area
- Trended HPLC data, peak at RRT 1.08 ([3]; t = 6 h in FaSSIF): 0.16 % area
- Trended HPLC data, Tabernanthalog (RRT 1.00) ([3]; t = 6 h in FeSSIF): 98.69 % area
- Trended HPLC data, peak at RRT 0.93 ([3]; t = 6 h in FeSSIF): 1.00 % area
- Trended HPLC data, peak at RRT 1.08 ([3]; t = 6 h in FeSSIF): 0.15 % area
- Trended HPLC data, peak at RRT 1.10 ([3]; t = 6 h in FeSSIF): 0.07 % area
- Trended HPLC data, peak at RRT 1.11 ([3]; t = 6 h in FeSSIF): 0.09 % area
- Trended HPLC data, Tabernanthalog (RRT 1.00) ([3]; t = 24 h in FaSSGF): 99.29 % area
- Trended HPLC data, peak at RRT 0.93 ([3]; t = 24 h in FaSSGF): 0.63 % area
- Trended HPLC data, peak at RRT 1.09 ([3]; t = 24 h in FaSSGF): 0.08 % area
- Trended HPLC data, Tabernanthalog (RRT 1.00) ([3]; t = 24 h in FaSSIF): 98.01 % area
- Trended HPLC data, peak at RRT 0.93 ([3]; t = 24 h in FaSSIF): 1.51 % area
- Trended HPLC data, peak at RRT 1.08 ([3]; t = 24 h in FaSSIF): 0.24 % area
- Trended HPLC data, peak at RRT 1.10 ([3]; t = 24 h in FaSSIF): 0.11 % area
- Trended HPLC data, peak at RRT 1.11 ([3]; t = 24 h in FaSSIF): 0.13 % area
- Trended HPLC data, Tabernanthalog (RRT 1.00) ([3]; t = 24 h in FeSSIF): 98.17 % area
- Trended HPLC data, peak at RRT 0.89 ([3]; t = 24 h in FeSSIF): 0.15 % area
- Trended HPLC data, peak at RRT 0.93 ([3]; t = 24 h in FeSSIF): 1.36 % area
- Trended HPLC data, peak at RRT 1.08 ([3]; t = 24 h in FeSSIF): 0.19 % area
- Trended HPLC data, peak at RRT 1.10 ([3]; t = 24 h in FeSSIF): 0.13 % area
- Discrete melt (DSC)? [4]: ✓
- Flat baseline (DSC)? [4]: ✓
- Flat baseline pre-melt (TGA)? [4]: ✓
- Unique XRPD? [4]: ✓

Compound: COc1ccc2c3c([nH]c2c1)CCN(C)CC3.O=S(=O)(O)CCS(=O)(=O)O [Tabernanthalog · Edisylate]
- Unique XRPD? [4]: Disordered

Compound: COc1ccc2c3c([nH]c2c1)CCN(C)CC3.O=C(O)[C@@H](O)[C@H](O)[C@H](O)[C@@H](O)C(=O)O [Tabernanthalog · Galactarate]
- Flat baseline pre-melt (TGA)? [4]: ✓
- Unique XRPD? [4]: v. Disordered

Compound: COc1ccc2c3c([nH]c2c1)CCN(C)CC3.O=C[C@H](O)[C@@H](O)[C@H](O)[C@H](O)C(=O)O [Tabernanthalog · Glucuronate]
- Discrete melt (DSC)? [4]: ✓
- Flat baseline (DSC)? [4]: ✓
- Flat baseline pre-melt (TGA)? [4]: ✓
- Unique XRPD? [4]: ✓

Compound: COc1ccc2c3c([nH]c2c1)CCN(C)CC3.O=C(O)C[C@H](O)C(=O)O [Tabernanthalog · Malate]
- Discrete melt (DSC)? [4]: ✓
- Flat baseline (DSC)? [4]: ✓
- Flat baseline pre-melt (TGA)? [4]: ✓
- Unique XRPD? [4]: ✓

Compound: COc1ccc2c3c([nH]c2c1)CCN(C)CC3.O=C(O)C=CC(=O)O [Tabernanthalog · Maleate]
- Unique XRPD? [4]: Disordered

Compound: COc1ccc2c3c([nH]c2c1)CCN(C)CC3.O=P(O)(O)O [Tabernanthalog · Phosphate]
- Discrete melt (DSC)? [4]: ✓
- Flat baseline (DSC)? [4]: ✓
- Unique XRPD? [4]: Disordered

Compound: COc1ccc2c3c([nH]c2c1)CCN(C)CC3 [Tabernanthalog · Sorbate]
- Discrete melt (DSC)? [4]: ✓
- Flat baseline (DSC)? [4]: ✓
- Flat baseline pre-melt (TGA)? [4]: ✓
- Unique XRPD? [4]: ✓

Compound: COc1ccc2c3c([nH]c2c1)CCN(C)CC3.O=S(=O)(O)O [Tabernanthalog · Sulfate]
- Unique XRPD? [4]: Amorphous

Compound: COc1ccc2c3c([nH]c2c1)CCN(C)CC3.Cc1ccc(S(=O)(=O)O)cc1 [Tabernanthalog · Tosylate]
- Discrete melt (DSC)? [4]: ✓
- Flat baseline (DSC)? [4]: ✓
- Flat baseline pre-melt (TGA)? [4]: ✓
- Unique XRPD? [4]: ✓
